Test results as given in patent US11464770B2, “Anticancer pharmaceutical composition” (NATIONAL CANCER CENTER, priority 2016, dated 2022).
Like-named read-outs stand apart in the source and are kept apart here.

Legend:
[1] = test system: pancreatic cancer cell lines (e.g. MIA PaCa-2); assay: Cell based assay, cell viability (CellTiter-Glo), pancreatic cancer cell lines; details: Homo sapiens
How it was run: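 Commercial tumour lines, detached with trypsin-EDTA, were seeded and incubated 24 h. They were then dosed to 0–2 μM final, grown 72 h, and assessed for viability using CellTiter-Glo.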

[2] = test system: zebrafish; assay: Cardiotoxicity experiment using zebrafish (heart rate, lethality); type: in vivo; details: 5 uM, n = 10
[3] = pancreatic cancer cell line AsPC-1, 72 hours, read-out: IC50, AsPC-1
[4] = pancreatic cancer cell line BxPC-3, 72 hours, read-out: IC50, BxPC-3
[5] = pancreatic cancer cell line CFPAC-1, 72 hours, read-out: IC50, CFPAC-1
[6] = pancreatic cancer cell line Capan-1, 72 hours, read-out: IC50, Capan-1
[7] = pancreatic cancer cell line Capan-2, 72 hours, read-out: IC50, Capan-2
[8] = pancreatic cancer cell line MIA PaCa-2, 72 hours, read-out: IC50, MIA PaCa-2
[9] = pancreatic cancer cell line PANC-1, 72 hours, read-out: IC50, PANC-1

Row | SMILES | IC50 [1, 3] [nM] | IC50 [1, 4] [nM] | IC50 [1, 5] [nM] | IC50 [1, 6] [nM] | IC50 [1, 7] [nM] | IC50 [1, 8] [nM] | IC50 [1, 9] [nM] | Changes (%) in heart rate ([2]; mean) [%] | Lethality [2]
1 | COc1cc(S(F)(F)(F)(F)F)ccc1C[S+]([O-])c1[nH]c2c(Br)ccc(Cl)c2c(=O)c1C(C)=O (stereo not shown) [Compound 75, 3-acetyl-8-bromo-5-chloro-2-((2-methoxy-4-(pentafluoro--sulfanyl)benzyl)sulfinyl)quinolin-4(1H)-one] | > 2000 | > 2000 | > 10000 | > 2000 | > 2000 | 1320 | > 2000 | – | –
2 | CC(=O)c1c([S+]([O-])Cc2ccc(F)c(Cl)c2)[nH]c2c(Br)ccc(Cl)c2c1=O (stereo not shown) [Compound 31, 3-acetyl-8-bromo-5-chloro-2-((3-chloro-4-fluorobenzyl)sulfinyl)quinolin-4(1H)-one] | > 2000 | > 2000 | > 10000 | > 2000 | > 2000 | 1180 | > 2000 | – | –
3 | COc1cccc(C[S+]([O-])c2[nH]c3c(Br)ccc(Cl)c3c(=O)c2C(C)=O)c1 (stereo not shown) [Compound 55, 3-acetyl-8-bromo-5-chloro-2-((3-methoxybenzyl)sulfinyl)quinolin-4(1H)-one] | > 2000 | > 2000 | > 10000 | > 2000 | > 2000 | 1690 | > 2000 | – | –
4 | CC(=O)c1c([S+]([O-])Cc2ccc(C(C)(C)C)cc2)[nH]c2c(Br)ccc(Cl)c2c1=O (stereo not shown) [Compound 60, 3-acetyl-8-bromo-2-((4-(tert-butyl)benzyl)sulfinyl)-5-chloroquinolin-4(1H)-one] | > 2000 | > 2000 | > 10000 | > 2000 | > 2000 | > 2000 | > 2000 | – | –
5 | CC(=O)c1c([S+]([O-])Cc2ccc([S+]([O-])C(F)(F)F)cc2)[nH]c2c(Br)ccc(Cl)c2c1=O (stereo not shown) [Compound 64, 3-acetyl-8-bromo-5-chloro-2-((4-((trifluoromethyl)sulfinyl)benzyl)sulfinyl)quinolin-4(1H)-one] | > 2000 | > 2000 | > 10000 | > 2000 | > 2000 | 1220 | > 2000 | – | –
6 | CC(=O)c1c([S+]([O-])Cc2c(F)cccc2Cl)[nH]c2c(Br)ccc(Cl)c2c1=O (stereo not shown) [Compound 74, 3-acetyl-8-bromo-5-chloro-2-((2-chloro-6-fluorobenzyl)sulfinyl)quinolin-4(1H)-one] | > 2000 | > 2000 | > 10000 | > 2000 | > 2000 | 1180 | > 2000 | – | –
7 | CC(=O)c1c([S+]([O-])Cc2cc(F)cc(F)c2)[nH]c2c(Br)ccc(Cl)c2c1=O (stereo not shown) [Compound 46, 3-acetyl-8-bromo-5-chloro-2-((3,5-difluorobenzyl)sulfinyl)quinolin-4(1H)-one] | > 2000 | > 2000 | > 10000 | > 2000 | > 2000 | 1570 | > 2000 | – | –
8 | CC(=O)c1c([S+]([O-])Cc2ccc(F)cc2F)[nH]c2c(Br)ccc(Cl)c2c1=O (stereo not shown) [Compound 29, 3-acetyl-8-bromo-5-chloro-2-((2,4-difluorobenzyl)sulfinyl)quinolin-4(1H)-one] | > 2000 | > 2000 | > 10000 | > 2000 | > 2000 | 1190 | > 2000 | – | –
9 | COc1cc(C[S+]([O-])c2[nH]c3c(Br)ccc(Cl)c3c(=O)c2C(C)=O)cc(OC)c1 (stereo not shown) [Compound 59, 3-acetyl-8-bromo-5-chloro-2-((3,5-dimethoxybenzyl)sulfinyl)quinolin-4(1H)-one] | > 2000 | > 2000 | > 10000 | > 2000 | > 2000 | 1380 | > 2000 | – | –
10 | CC(=O)c1c([S+]([O-])Cc2cc(C)on2)[nH]c2c(Br)ccc(Cl)c2c1=O (stereo not shown) [Compound 51, 3-acetyl-8-bromo-5-chloro-2-(((5-methylisoxazol-3-yl)methyl)sulfinyl)quinolin-4(1H)-one] | > 2000 | > 2000 | > 10000 | > 2000 | > 2000 | 760 | > 2000 | – | –
11 | CC(=O)c1c([S+]([O-])Cc2cc(F)cc(S(F)(F)(F)(F)F)c2)[nH]c2c(Br)ccc(Cl)c2c1=O (stereo not shown) [Compound 76, 3-acetyl-8-bromo-5-chloro-2-((3-fluoro-5-(pentafluoro--sulfanyl)benzyl)sulfinyl)quinolin-4(1H)-one] | > 2000 | > 2000 | > 10000 | > 2000 | > 2000 | 1550 | > 2000 | – | –
12 | CC(=O)c1c([S+]([O-])Cc2ccc(I)cc2)[nH]c2c(Cl)ccc(Cl)c2c1=O (stereo not shown) [Compound 83, 3-acetyl-5,8-dichloro-2-((4-iodobenzyl)sulfinyl)quinolin-4(1H)-one] | > 2000 | > 2000 | > 10000 | > 2000 | > 2000 | 1440 | > 2000 | – | –
13 | CC(=O)c1c([S+]([O-])Cc2ccc([N+](=O)[O-])cc2)[nH]c2c(Br)ccc(Cl)c2c1=O (stereo not shown) [Compound 33, 3-acetyl-8-bromo-5-chloro-2-((4-nitrobenzyl)sulfinyl)quinolin-4(1H)-one] | > 2000 | > 2000 | > 10000 | > 2000 | > 2000 | 1040 | > 2000 | 97.3 | 0/10

Second part, led by results:

Row | IC50 [1, 3] [nM] | IC50 [1, 4] [nM] | IC50 [1, 5] [nM] | IC50 [1, 6] [nM] | IC50 [1, 7] [nM] | IC50 [1, 8] [nM] | IC50 [1, 9] [nM] | SMILES | Changes (%) in heart rate ([2]; mean) [%] | Lethality [2]
14 | > 2000 | > 2000 | > 10000 | > 2000 | > 2000 | 1400 | > 2000 | CC(=O)c1c([S+]([O-])Cc2c(F)c(F)c(F)c(F)c2F)[nH]c2c(Br)ccc(Cl)c2c1=O (stereo not shown) [Compound 78, 3-acetyl-8-bromo-5-chloro-2-(((perfluorophenyl)methyl)sulfinyl)quinolin-4(1H)-one] | – | –
15 | > 2000 | > 2000 | > 10000 | > 2000 | > 2000 | 1230 | > 2000 | CC(=O)c1c([S+]([O-])Cc2cc(Cl)ccc2Cl)[nH]c2c(Br)ccc(Cl)c2c1=O (stereo not shown) [Compound 44, 3-acetyl-8-bromo-5-chloro-2-((2,5-dichlorobenzyl)sulfinyl)quinolin-4(1H)-one] | – | –
16 | > 2000 | > 2000 | > 10000 | > 2000 | > 2000 | 1450 | > 2000 | CC(=O)c1c([S+]([O-])Cc2cccc(F)c2)[nH]c2c(Br)ccc(Cl)c2c1=O (stereo not shown) [Compound 50, 3-acetyl-8-bromo-5-chloro-2-((3-fluorobenzyl)sulfinyl)quinolin-4(1H)-one] | – | –
17 | > 2000 | > 2000 | > 10000 | > 2000 | > 2000 | > 2000 | > 2000 | CC(=O)c1c([S+]([O-])Cc2ccc([N+](=O)[O-])cc2)[nH]c2c(Cl)ccc(Cl)c2c1=O (stereo not shown) [Compound 57, 3-acetyl-5,8-dichloro-2-((4-nitrobenzyl)sulfinyl)quinolin-4(1H)-one] | – | –
18 | > 2000 | > 2000 | > 10000 | > 2000 | > 2000 | 1990 | > 2000 | CC(=O)c1c(S(=O)(=O)Cc2ccccc2)[nH]c2c(Br)ccc(Cl)c2c1=O [Compound 34, 3-acetyl-2-(benzylsulfonyl)-8-bromo-5-chloroquinolin-4(1H)-one] | – | –
19 | > 2000 | > 2000 | > 10000 | > 2000 | > 2000 | 1410 | > 2000 | COC(=O)c1ccc(C[S+]([O-])c2[nH]c3c(Cl)ccc(Cl)c3c(=O)c2C(C)=O)o1 (stereo not shown) [Compound 89, methyl 5-(((3-acetyl-5,8-dichloro-4-oxo-1,4-dihydroquinolin-2-yl)sulfinyl)methyl)furan-2-carboxylate] | – | –
20 | > 2000 | > 2000 | > 10000 | > 2000 | > 2000 | 1650 | > 2000 | CC(=O)c1c([S+]([O-])Cc2ccc(C#N)cc2)[nH]c2c(Br)ccc(Cl)c2c1=O (stereo not shown) [Compound 73, 4-(((3-acetyl-8-bromo-5-chloro-4-oxo-1,4-dihydroquinolin-2-yl)sulfinyl)methyl)benzonitrile] | – | –
21 | 1800 | > 2000 | > 10000 | 1500 | > 2000 | 920 | > 2000 | CC(=O)c1c([S+]([O-])Cc2cccnc2)[nH]c2c(Br)ccc(Cl)c2c1=O (stereo not shown) [Compound 84, 3-acetyl-8-bromo-5-chloro-2-((pyridin-3-ylmethyl)sulfinyl)quinolin-4(1H)-one] | – | –
22 | > 2000 | > 2000 | > 10000 | > 2000 | > 2000 | 1440 | > 2000 | CC(=O)c1c([S+]([O-])Cc2ccc(C(F)(F)F)cc2)[nH]c2c(Br)ccc(Cl)c2c1=O (stereo not shown) [Compound 70, 3-acetyl-8-bromo-5-chloro-2-((4-(trifluoromethyl)benzyl)sulfinyl)quinolin-4(1H)-one] | – | –
23 | > 2000 | > 2000 | > 10000 | > 2000 | > 2000 | 1650 | > 2000 | CC(=O)c1c([S+]([O-])Cc2ccc(OC(F)(F)F)cc2)[nH]c2c(Br)ccc(Cl)c2c1=O (stereo not shown) [Compound 71, 3-acetyl-8-bromo-5-chloro-2-((4-(trifluoromethoxy)benzyl)sulfinyl)quinolin-4(1H)-one] | – | –
24 | 1060 | > 2000 | > 10000 | 1250 | > 2000 | 590 | > 2000 | Cc1cc(C[S+]([O-])c2[nH]c3c(Br)ccc(Cl)c3c(=O)c2C(=O)C(C)C)no1 (stereo not shown) [Compound 95, 8-bromo-5-chloro-3-isobutyryl-2-(((5-methylisoxazol-3-yl)methyl)sulfinyl)quinolin-4(1H)-one] | – | –
25 | 1280 | > 2000 | > 10000 | 1260 | > 2000 | 640 | > 2000 | Cc1cc(C[S+]([O-])c2[nH]c3c(Cl)ccc(Cl)c3c(=O)c2C(=O)C(C)C)no1 (stereo not shown) [Compound 86, 5,8-dichloro-3-isobutyryl-2-(((5-methylisoxazol-3-yl)methyl)sulfinyl)quinolin-4(1H)-one] | – | –
26 | 2010 | > 2000 | > 10000 | > 2000 | > 2000 | 1000 | > 2000 | CC(=O)c1c([S+]([O-])Cc2ccc(C(F)(F)F)o2)[nH]c2c(Br)ccc(Cl)c2c1=O (stereo not shown) [Compound 72, 3-acetyl-8-bromo-5-chloro-2-(((5-(trifluoromethyl)furan-2-yl)methyl)sulfinyl)quinolin-4(1H)-one] | – | –
